Publication PMC7284870, “Antimicrobial Peptides from Rat-Tailed Maggots of the Drone Fly Eristalis tenax Show Potent Activity against Multidrug-Resistant Gram-Negative Bacteria” (Microorganisms, 2020)
≈ marks a conversion by molar mass, not a printed value. Where two headings read alike, the source gives them in different places.

Assays:
Assay in all cases: MIC, clinical isolates
Assay type in all cases: cell-based
[1] = system: Stenotrophomonas maltophilia clinical isolates (2); conditions: Table S1, RKI 729/15
Protocol: (§1) The strains that were used in this study (Table 2 and Table S1) were cultivated at 37 °C in cation-adjusted Mueller–Hinton broth (CAMB) in Erlenmeyer flasks, or on the same medium with agar in Petri dishes. Exceptionally, Mycobacterium smegmatis was cultivated at 37 °C in brain heart infusion (BHI) medium that was supplemented with 1% Tween-80 in Erlenmeyer flasks, or on the same medium lacking detergent but with agar in Petri dishes. Strains listed with Robert Koch Institute (RKI) strain numbers are clinical isolates from the RKI strain collection originating from hospitalized patients in Germany. The remaining strains originated from the Sanofi strain collection and they were originally purchased from the American Type Culture Collection or the German Collection of Microorganisms and Cell Cultures. Meropenem/colistin-resistant strains were maintained, as described above, with the appropriate antibiotic added at levels below the minimal inhibitory concentration (MIC).
(§2) The MIC values were determined in 384-well microtiter plates with an assay volume of 20 µL. Immediately before each assay, the cultures of test organisms (bacteria grown for 18 h, Candida albicans and M. smegmatis grown for 48 h) were diluted with the appropriate medium to a density of 1 × 10^6 cells/mL (C. albicans), 1 × 10^5 cells/mL (M. smegmatis) or 5 × 10^5 cells per mL (other species). […] We transferred 2-µL aliquots from this dilution series to new 384-well microtiter plates while using a CyBio-Well 384-channel automated pipettor (Analytic Jena, Jena, Germany) and added 18 µL of the diluted suspension of each test species using a Viafill reagent dispenser (Integra), thus reducing the final peptide concentration 10-fold to the range 1024–0.03125 µg/mL. […] The growth of M. smegmatis was measured using the BacTiter-Glo luminescence test system (Promega, Madison, WI, USA). The growth of the other species was determined by visual inspection of the microtiter plate and turbidimetry based on the optical density at 600 nm (OD600). The MIC was defined as the peptide concentration at which no bacterial growth was observed. We supplemented the test medium with either 150 mM NaCl or 1.25 mM CaCl2 to represent monovalent and divalent cations to simulate physiological conditions.

[2] = system: Enterobacter cloacae clinical isolates (23)
Protocol: as §1, §2

[3] = system: Morganella morganii clinical isolates (4)
Protocol: as §1, §2

[4] = system: Klebsiella oxytoca clinical isolates (2); conditions: Table S1, RKI 609/16
Protocol: as §1, §2

[5] = system: Acinetobacter baumannii clinical isolates (20)
Protocol: as §1, §2

[6] = system: Citrobacter freundii clinical isolate (1); conditions: Table S1, RKI 604/16
Protocol: as §1, §2

[7] = system: Escherichia coli clinical isolates (26)
Protocol: as §1, §2

[8] = system: Acinetobacter pittii clinical isolate (1); conditions: Table S1, RKI 588/16
Protocol: as §1, §2

[9] = system: Klebsiella pneumoniae clinical isolates (21)
Protocol: as §1, §2

With `C[C@@H](O)[C@H]1C(=O)N2C(C(=O)O)=C(S[C@@H]3CN[C@H](C(=O)N(C)C)C3)[C@H](C)[C@H]12` [MEM, meropenem] the MIC [1] was greater than 64 µg/mL, the MIC ([2]; Table S1, RKI 5/14) was 4 µg/mL (≈ 10.4 µM) and the MIC ([2]; Table S1, RKI 33/16) was 8 µg/mL (≈ 20.9 µM). The MIC ([2]; Table S1, RKI 34/16) was 32 µg/mL (≈ 83.4 µM), the MIC ([2]; Table S1, RKI 37/14) was no more than 0.5 µg/mL and the MIC ([2]; Table S1, RKI 76/15) was no more than 0.5 µg/mL. For the same compound, the MIC ([2]; Table S1, RKI 113/16) was 2 µg/mL (≈ 5.22 µM), the MIC ([2]; Table S1, RKI 136/15) was greater than 64 µg/mL and the MIC ([2]; Table S1, RKI 141/15) was 2 µg/mL (≈ 5.22 µM). It also gave an MIC ([2]; Table S1, RKI 210/15) of no more than 0.5 µg/mL, an MIC ([2]; Table S1, RKI 215/15) of no more than 0.5 µg/mL and an MIC ([2]; Table S1, RKI 243/15) of no more than 0.5 µg/mL. For the same compound, the MIC ([2]; Table S1, RKI 287/13) was 64 µg/mL (≈ 167 µM), the MIC ([2]; Table S1, RKI 308/13) was 8 µg/mL (≈ 20.9 µM) and the MIC ([2]; Table S1, RKI 348/15) was 1 µg/mL (≈ 2.61 µM). For the same compound, the MIC ([2]; Table S1, RKI 361/13) was no more than 0.5 µg/mL, the MIC ([2]; Table S1, RKI 460/16) was 64 µg/mL (≈ 167 µM) and the MIC ([2]; Table S1, RKI 466/13) was 16 µg/mL (≈ 41.7 µM). It also gave an MIC ([2]; Table S1, RKI 506/15) of 16 µg/mL (≈ 41.7 µM), an MIC ([2]; Table S1, RKI 546/13) of no more than 0.5 µg/mL and an MIC ([2]; Table S1, RKI 571/13) of no more than 0.5 µg/mL. The MIC ([2]; Table S1, RKI 733/14) was 64 µg/mL (≈ 167 µM), the MIC ([2]; Table S1, RKI 766/15) was no more than 0.5 µg/mL and the MIC ([3]; Table S1, RKI 81/15) was no more than 0.5 µg/mL. For the same compound, the MIC ([3]; Table S1, RKI 93/15) was no more than 0.5 µg/mL, the MIC ([3]; Table S1, RKI 599/16) was greater than 64 µg/mL and the MIC ([3]; Table S1, RKI 659/13) was no more than 0.5 µg/mL. For the same compound, the MIC [4] was 16 µg/mL (≈ 41.7 µM), the MIC ([5]; Table S1, RKI 3/15) was 32 µg/mL (≈ 83.4 µM) and the MIC ([5]; Table S1, RKI 4/15) was 32 µg/mL (≈ 83.4 µM). It also gave an MIC ([5]; Table S1, RKI 11/16) greater than 64 µg/mL, an MIC ([5]; Table S1, RKI 12/16) of 64 µg/mL (≈ 167 µM) and an MIC ([5]; Table S1, RKI 13/16) greater than 64 µg/mL. The MIC ([5]; Table S1, RKI 14/16) was greater than 64 µg/mL, the MIC ([5]; Table S1, RKI 16/15) was greater than 64 µg/mL and the MIC ([5]; Table S1, RKI 16/16) was greater than 64 µg/mL. For the same compound, the MIC ([5]; Table S1, RKI 30/16) was greater than 64 µg/mL, the MIC ([5]; Table S1, RKI 32/16) was 64 µg/mL (≈ 167 µM) and the MIC ([5]; Table S1, RKI 70/16) was greater than 64 µg/mL. It also gave an MIC ([5]; Table S1, RKI 230/15) greater than 64 µg/mL, an MIC ([5]; Table S1, RKI 231/15) of 64 µg/mL (≈ 167 µM) and an MIC ([5]; Table S1, RKI 271/16) greater than 64 µg/mL. The MIC ([5]; Table S1, RKI 272/16) was greater than 64 µg/mL, the MIC ([5]; Table S1, RKI 377/15) was 8 µg/mL (≈ 20.9 µM) and the MIC ([5]; Table S1, RKI 523/16) was 32 µg/mL (≈ 83.4 µM). For the same compound, the MIC ([5]; Table S1, RKI 584/16) was no more than 0.5 µg/mL, the MIC ([5]; Table S1, RKI 596/16) was greater than 64 µg/mL and the MIC [6] was greater than 64 µg/mL. The MIC ([7]; Table S1, RKI 75/15) was greater than 64 µg/mL, the MIC ([7]; Table S1, RKI 95/15) was no more than 0.5 µg/mL and the MIC ([7]; Table S1, RKI 97/15) was no more than 0.5 µg/mL. The MIC ([7]; Table S1, RKI 314/16) was no more than 0.5 µg/mL, the MIC ([7]; Table S1, RKI 317/16) was no more than 0.5 µg/mL and the MIC ([7]; Table S1, RKI 330/16) was no more than 0.5 µg/mL. The MIC ([7]; Table S1, RKI 443/16) was 4 µg/mL (≈ 10.4 µM), the MIC ([7]; Table S1, RKI 462/16) was no more than 0.5 µg/mL and the MIC ([7]; Table S1, RKI 513/16) was no more than 0.5 µg/mL. It also gave an MIC ([7]; Table S1, RKI 514/16) of no more than 0.5 µg/mL, an MIC ([7]; Table S1, RKI 515/16) of no more than 0.5 µg/mL and an MIC ([7]; Table S1, RKI 521/16) of no more than 0.5 µg/mL. For the same compound, the MIC ([7]; Table S1, RKI 524/16) was no more than 0.5 µg/mL, the MIC ([7]; Table S1, RKI 525/16) was no more than 0.5 µg/mL and the MIC ([7]; Table S1, RKI 581/16) was no more than 0.5 µg/mL. It also gave an MIC ([7]; Table S1, RKI 582/16) of no more than 0.5 µg/mL, an MIC ([7]; Table S1, RKI 583/16) of no more than 0.5 µg/mL and an MIC ([7]; Table S1, RKI 590/16) of no more than 0.5 µg/mL. For the same compound, the MIC ([7]; Table S1, RKI 592/16) was no more than 0.5 µg/mL, the MIC ([7]; Table S1, RKI 593/16) was no more than 0.5 µg/mL and the MIC ([7]; Table S1, RKI 602/16) was no more than 0.5 µg/mL. It also gave an MIC ([7]; Table S1, RKI 607/16) of 8 µg/mL (≈ 20.9 µM), an MIC ([7]; Table S1, RKI 867/14) of 8 µg/mL (≈ 20.9 µM) and an MIC ([7]; Table S1, RKI 1023/14) of no more than 0.5 µg/mL. It also gave an MIC [8] of no more than 0.5 µg/mL, an MIC ([9]; Klebsiella pneumoniae, Table S1, RKI 600/16, read-out: MIC) of no more than 0.5 µg/mL and an MIC ([9]; Table S1, RKI 19/16) of no more than 0.5 µg/mL. For the same compound, the MIC ([9]; Table S1, RKI 80/15) was no more than 0.5 µg/mL, the MIC ([9]; Table S1, RKI 94/15) was no more than 0.5 µg/mL and the MIC ([9]; Table S1, RKI 95/16) was no more than 0.5 µg/mL. It also gave an MIC ([9]; Table S1, RKI 107/15) of 1 µg/mL (≈ 2.61 µM), an MIC ([9]; Table S1, RKI 138/16) of no more than 0.5 µg/mL and an MIC ([9]; Table S1, RKI 164/16) greater than 64 µg/mL. For the same compound, the MIC ([9]; Table S1, RKI 229/15) was 16 µg/mL (≈ 41.7 µM), the MIC ([9]; Table S1, RKI 320/16) was no more than 0.5 µg/mL and the MIC ([9]; Table S1, RKI 328/16) was 64 µg/mL (≈ 167 µM). For the same compound, the MIC ([9]; Table S1, RKI 373/16-1) was no more than 0.5 µg/mL, the MIC ([9]; Table S1, RKI 393/16) was no more than 0.5 µg/mL and the MIC ([9]; Table S1, RKI 461/16) was no more than 0.5 µg/mL. The MIC ([9]; Table S1, RKI 503/15) was 32 µg/mL (≈ 83.4 µM), the MIC ([9]; Table S1, RKI 544/13) was greater than 64 µg/mL and the MIC ([9]; Table S1, RKI 577/15) was no more than 0.5 µg/mL. For the same compound, the MIC ([9]; Table S1, RKI 908/15) was 32 µg/mL (≈ 83.4 µM).
